In ChEMBL document CHEMBL4359868, “New anthranilic acid-incorporating N-benzenesulfonamidophthalimides as potent inhibitors of carbonic anhydrases I, II, IX, and XII: Synthesis, in vitro testing, and in silico assessment” (Eur J Med Chem, 2019):
Blank lines part the entries; values can stand above or below the molecule they belong to.

Assays:
Carbonic anhydrase 9 [1] = target: T1, Carbonic anhydrase 9 (Homo sapiens, UniProt Q16790)
Description: Inhibition of recombinant human CA9 preincubated for 15 mins by phenol red dye-based stopped-flow CO2 hydration assay

Carbonic anhydrase 1 = Carbonic anhydrase 1 (Homo sapiens, UniProt P00915); experiment: Inhibition of recombinant human CA1 preincubated for 15 mins by phenol red dye-based stopped-flow CO2 hydration assay
Sequence of Carbonic anhydrase 1 (P00915 whole entry): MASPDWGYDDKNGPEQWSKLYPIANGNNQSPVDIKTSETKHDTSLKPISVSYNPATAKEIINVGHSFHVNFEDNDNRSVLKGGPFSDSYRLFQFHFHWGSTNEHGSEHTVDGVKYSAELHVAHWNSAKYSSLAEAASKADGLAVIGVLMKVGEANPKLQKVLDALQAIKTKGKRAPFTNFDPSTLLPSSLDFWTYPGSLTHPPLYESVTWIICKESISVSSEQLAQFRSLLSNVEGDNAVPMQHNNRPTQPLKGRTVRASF

Carbonic anhydrase 12 = Carbonic anhydrase 12 (Homo sapiens, UniProt O43570)
Sequence of Carbonic anhydrase 12 (O43570 whole entry): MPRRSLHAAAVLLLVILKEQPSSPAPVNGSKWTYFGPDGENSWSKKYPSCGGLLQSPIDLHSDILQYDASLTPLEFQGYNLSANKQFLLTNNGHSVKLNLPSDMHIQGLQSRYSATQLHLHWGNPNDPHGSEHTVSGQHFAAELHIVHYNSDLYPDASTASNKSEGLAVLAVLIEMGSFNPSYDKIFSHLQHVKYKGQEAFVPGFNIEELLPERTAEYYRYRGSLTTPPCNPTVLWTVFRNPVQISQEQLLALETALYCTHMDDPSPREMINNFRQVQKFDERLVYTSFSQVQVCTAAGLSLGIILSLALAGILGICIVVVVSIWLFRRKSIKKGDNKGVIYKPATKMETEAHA
Description: Inhibition of recombinant human CA12 preincubated for 15 mins by phenol red dye-based stopped-flow CO2 hydration assay

Carbonic anhydrase 2 = Carbonic anhydrase 2 (Homo sapiens, UniProt P00918); experiment: Inhibition of recombinant human CA2 preincubated for 15 mins by phenol red dye-based stopped-flow CO2 hydration assay
Carbonic anhydrase 9 [2] = target: T1, Carbonic anhydrase 9; experiment: Inhibition of recombinant human CA9 at 10^-4 M preincubated for 15 mins by phenol red dye-based stopped-flow CO2 hydration assay
Carbonic anhydrase 9 [3] = target: T1, Carbonic anhydrase 9; conditions: at 0.1 µM
Description: Inhibition of recombinant human CA9 at 10^-7 M preincubated for 15 mins by phenol red dye-based stopped-flow CO2 hydration assay

Carbonic anhydrase 9 [4] = target: T1, Carbonic anhydrase 9; conditions: at 1 µM
Description: Inhibition of recombinant human CA9 at 10^-6 M preincubated for 15 mins by phenol red dye-based stopped-flow CO2 hydration assay

Carbonic anhydrase 9 [5] = target: T1, Carbonic anhydrase 9; conditions: 10^-5 M
Description: Inhibition of recombinant human CA9 at 10^-5 M preincubated for 15 mins by phenol red dye-based stopped-flow CO2 hydration assay

Carbonic anhydrase 9 [6] = target: T1, Carbonic anhydrase 9; conditions: at 0.01 µM
Description: Inhibition of recombinant human CA9 at 10^-8 M preincubated for 15 mins by phenol red dye-based stopped-flow CO2 hydration assay

Structure (SMILES): COc1ccc(NC(=O)c2ccc3c(c2)C(=O)N(c2ccccc2)C3=O)c(C(=O)O)c1
Ki (Carbonic anhydrase 2): > 100 µM
Ki (Carbonic anhydrase 9 [1]): 8.2 µM
Ki (Carbonic anhydrase 12): > 100 µM

Structure (SMILES): COc1ccc(NC(=O)c2ccc3c(c2)C(=O)N(c2ccc(S(N)(=O)=O)cc2)C3=O)c(C(=O)O)c1
Ki (Carbonic anhydrase 9 [1]): 0.0088 µM

Structure (SMILES): COc1ccc(NC(=O)c2ccc3c(c2)C(=O)N(Cc2ccc(S(N)(=O)=O)cc2)C3=O)c(C(=O)O)c1
Ki (Carbonic anhydrase 9 [1]): 0.036 µM

Structure (SMILES): O=C(O)c1ccc(N2C(=O)c3ccc(C(=O)Nc4ccc(Cl)cc4C(=O)O)cc3C2=O)cc1
Ki (Carbonic anhydrase 9 [1]): 0.46 µM
inhibition (Carbonic anhydrase 9 [2]): 92%
inhibition (Carbonic anhydrase 9 [3]): 17%
inhibition (Carbonic anhydrase 9 [4]): 70%
inhibition (Carbonic anhydrase 9 [5]): 85%

Structure (SMILES): O=C(Nc1ccc(Cl)cc1C(=O)O)c1ccc2c(c1)C(=O)N(Cc1ccccc1)C2=O
Ki (Carbonic anhydrase 1): > 100 µM
Ki (Carbonic anhydrase 2): > 100 µM
Ki (Carbonic anhydrase 9 [1]): 47.3 µM
Ki (Carbonic anhydrase 12): > 100 µM

Structure (SMILES): COc1ccc(NC(=O)c2ccc3c(c2)C(=O)N(CCc2ccc(S(N)(=O)=O)cc2)C3=O)c(C(=O)O)c1
Ki (Carbonic anhydrase 9 [1]): 0.0082 µM

Structure (SMILES): CCOC(=O)c1ccc(N2C(=O)c3ccc(C(=O)Nc4ccc(OC)cc4C(=O)O)cc3C2=O)cc1
Ki (Carbonic anhydrase 9 [1]): 0.96 µM

Structure (SMILES): O=C(Nc1ccc(Cl)cc1C(=O)O)c1ccc2c(c1)C(=O)N(CCc1ccccc1)C2=O
Ki (Carbonic anhydrase 1): > 100 µM
Ki (Carbonic anhydrase 9 [1]): 39.6 µM
Ki (Carbonic anhydrase 12): > 100 µM

Structure (SMILES): O=C(Nc1ccc(Cl)cc1C(=O)O)c1ccc2c(c1)C(=O)N(c1ccccc1)C2=O
Ki (Carbonic anhydrase 1): > 100 µM
Ki (Carbonic anhydrase 9 [1]): 5.5 µM
Ki (Carbonic anhydrase 12): > 100 µM

Structure (SMILES): NS(=O)(=O)c1ccc(CCN2C(=O)c3ccc(C(=O)Nc4ccc(Cl)cc4C(=O)O)cc3C2=O)cc1
Ki (Carbonic anhydrase 9 [1]): 0.0073 µM

Structure (SMILES): COc1ccc(NC(=O)c2ccc3c(c2)C(=O)N(c2ccc(C(=O)O)cc2)C3=O)c(C(=O)O)c1
Ki (Carbonic anhydrase 9 [1]): 0.72 µM

Structure (SMILES): O=C(Nc1ccc(Cl)cc1C(=O)O)c1ccc2c(c1)C(=O)OC2=O
Ki (Carbonic anhydrase 9 [1]): 0.052 µM

Now from value to molecule:

Ki (Carbonic anhydrase 9 [1]): 0.0216 µM
Structure (SMILES): NS(=O)(=O)c1ccc(CN2C(=O)c3ccc(C(=O)Nc4ccc(Cl)cc4C(=O)O)cc3C2=O)cc1

Ki (Carbonic anhydrase 1): > 100 µM
Ki (Carbonic anhydrase 9 [1]): 41.9 µM
Ki (Carbonic anhydrase 12): > 100 µM
Structure (SMILES): COc1ccc(NC(=O)c2ccc3c(c2)C(=O)N(Cc2ccccc2)C3=O)c(C(=O)O)c1

Ki (Carbonic anhydrase 1): > 100 µM
Ki (Carbonic anhydrase 2): > 100 µM
Ki (Carbonic anhydrase 9 [1]): 31 µM
Ki (Carbonic anhydrase 12): > 100 µM
Structure (SMILES): COc1ccc(NC(=O)c2ccc3c(c2)C(=O)N(CCc2ccccc2)C3=O)c(C(=O)O)c1

Ki (Carbonic anhydrase 9 [1]): 0.0039 µM
inhibition (Carbonic anhydrase 9 [6]): 63%
inhibition (Carbonic anhydrase 9 [3]): 84%
inhibition (Carbonic anhydrase 9 [4]): 96%
Structure (SMILES): NS(=O)(=O)c1ccc(N2C(=O)c3ccc(C(=O)Nc4ccc(Cl)cc4C(=O)O)cc3C2=O)cc1

Ki (Carbonic anhydrase 1): > 0.1 µM
Ki (Carbonic anhydrase 9 [1]): > 0.1 µM
Ki (Carbonic anhydrase 12): > 0.1 µM
Structure (SMILES): COc1ccc(NC(=O)c2ccc3c(c2)C(=O)OC3=O)c(C(=O)O)c1

Ki (Carbonic anhydrase 9 [1]): 0.53 µM
Structure (SMILES): CCOC(=O)c1ccc(N2C(=O)c3ccc(C(=O)Nc4ccc(Cl)cc4C(=O)O)cc3C2=O)cc1
